Residue numbers refer to the chain shown, from its start. Where “and” joins values, the source holds several entries; their conditions need not be identical. Equal entries are not always repeated.
Key:
PEPCK-C 139L = target: T1, PEPCK-C 139L (Sus scrofa, UniProt A0A4X1UM84, M139L); test: Isothermal titration calorimetry (ITC); type: binding, pig; details: 139Leu; for Kd / ΔH: 25°C
T1 construct: His-tag (cleaved yes); made in house; host or cells: Escherichia coli BL21 (DE3)
T1 sequence (A0A4X1UM84 1-622 M139L): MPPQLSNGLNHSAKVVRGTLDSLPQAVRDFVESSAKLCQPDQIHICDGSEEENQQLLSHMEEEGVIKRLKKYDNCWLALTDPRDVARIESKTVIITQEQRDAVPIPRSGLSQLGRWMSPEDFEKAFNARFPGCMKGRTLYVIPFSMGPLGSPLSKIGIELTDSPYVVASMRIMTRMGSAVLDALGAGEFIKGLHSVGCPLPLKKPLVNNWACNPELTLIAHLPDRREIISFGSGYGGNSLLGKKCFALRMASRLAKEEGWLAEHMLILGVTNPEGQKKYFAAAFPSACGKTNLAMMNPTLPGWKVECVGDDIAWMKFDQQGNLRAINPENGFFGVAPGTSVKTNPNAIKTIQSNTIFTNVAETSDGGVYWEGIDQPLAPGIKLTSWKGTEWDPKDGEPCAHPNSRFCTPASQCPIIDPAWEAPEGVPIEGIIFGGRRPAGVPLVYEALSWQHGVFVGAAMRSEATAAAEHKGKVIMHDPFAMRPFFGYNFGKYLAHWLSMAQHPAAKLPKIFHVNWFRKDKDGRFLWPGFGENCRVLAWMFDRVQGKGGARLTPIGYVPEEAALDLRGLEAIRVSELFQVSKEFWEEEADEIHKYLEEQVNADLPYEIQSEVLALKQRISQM
Experimental: (§1) The reference cell was filled with distilled water. […] 2 mM GTP was also added to the enzyme solution in the corresponding experiments. […] In all the assays, a total of 19 injections of 2 μL were added sequentially to the sample cell with a 150 s spacing to ensure that the thermal power signal returned to the baseline prior to the next injection. The binding isotherms (normalized heat effect as a function of the molar ratio) were analyzed with Origin 7 (OriginLab) using a single class of binding sites model. Calorimetric assays were perform in duplicates at least.

PEPCK-C 139M = target: T2, PEPCK-C 139M (Sus scrofa, UniProt A0A4X1UM84); test: Isothermal titration calorimetry (ITC); type: binding, pig; details: 139Met; for Kd / ΔH: 25°C
T2 construct: His-tag (cleaved yes); made in house; host or cells: Escherichia coli BL21 (DE3)
T2 sequence (A0A4X1UM84 1-622): T1 sequence (A0A4X1UM84 1-622 M139L) with L139M
Experimental: as §1

PEPCK-C 139Met = target: T3, PEPCK-C 139Met (Sus scrofa, UniProt A0A4X1UM84); test: Compound 1 and 2 inhibition assays in PEP synthesis direction (Vmax and Km); type: biochemical, pig; design: made in house; host or cells: Escherichia coli BL21 (DE3); details: for Vmax (GTP) in presence of inhibitor / Vmax (OAA) in presence of inhibitor: 50 μM inhibitor; for Vmax (OAA) in presence of inhibitor: OAA variable substrate
T3 sequence (A0A4X1UM84 1-622): T1 sequence (A0A4X1UM84 1-622 M139L) with L139M
Experimental: (§2) PEPCK-C activity was measured in an UNICAM 500 spectrometer (UNICAM Analytical Systems, UK) with coupled spectrophotometric assays using pyruvate kinase and lactate dehydrogenase as auxiliary enzymes in PEP synthesis reaction and malate dehydrogenase in the reverse reaction.
(§3) 3-MP inhibitions assays in OAA synthesis direction were carried out as described before with the exception of the variable substrate (50–600 μM for PEP and 10–100 μM for GDP) and 3-MP concentration (10–100 μM). Assays in the direction of PEP synthesis were performed in 1 mL of a 100 mM HEPES buffer pH 7.4, containing 10 mM DTT, 0.2 mM MnCl2, 2 mM MgCl2, 1 mM GTP or 400 μM OAA, 1 mM ADP, 0.2 mM NADH, PEPCK-C and 5 units of each pyruvate kinase and lactate dehydrogenase. Reactions were initiated by addition of OAA. Variable substrates were 5–50 μM OAA or 25–500 μM GTP and 3-MP concentrations were between 10–400 μM. Rates were calculated by measuring the decreasing slope at 340 nm of absorbance after subtracting the rate of spontaneous NADH oxidation in the case of OAA synthesis or the rate of the blank which contained all the components of the mix but PEPCK-C in the case of PEP synthesis.
(§4) Compound 1 and 2 inhibitions assays were performed in PEP synthesis direction as described in 3-MP inhibition assays. Variable substrates were 10–100 μM OAA or 25–500 μM GTP, inhibitors concentrations were around IC50 value (100 μM compound 1 or 50 μM compound 2) and 20 units of each pyruvate kinase and lactate dehydrogenase were also added.
(§5) Data from compound 1 and 2 inhibition assays were represented in double reciprocal plots to calculate Vmax and Km values using GraphPad Prism 3.03 software.

PEPCK-C 139Leu = target: T4, PEPCK-C 139Leu (Sus scrofa, UniProt A0A4X1UM84, M139L); test: as above; type: biochemical, pig; details: for Vmax (GTP) in presence of inhibitor / Vmax (OAA) in presence of inhibitor: 50 μM inhibitor; for Vmax (OAA) in presence of inhibitor: OAA variable substrate
T4 construct: made in house; host or cells: Escherichia coli BL21 (DE3)
T4 sequence (A0A4X1UM84 1-622 M139L): T1 sequence (A0A4X1UM84 1-622 M139L)
Experimental: as §2, §3, §4, §5

[1] = stated for both isoenzymes, with and without GTP

| Kd (PEPCK-C 139L; +GTP (2 mM)) [µM] | ΔH (PEPCK-C 139L; +GTP (2 mM)) [kcal/mol] | Kd (PEPCK-C 139L; -GTP) [µM] | ΔH (PEPCK-C 139L; -GTP) [kcal/mol] | Kd (PEPCK-C 139M; +GTP (2 mM)) [µM] | ΔH (PEPCK-C 139M; +GTP (2 mM)) [kcal/mol] | Kd (PEPCK-C 139M; -GTP) [µM] | ΔH (PEPCK-C 139M; -GTP) [kcal/mol] | Rise of Km value for GTP in presence of the inhibitor (PEPCK-C 139Met; GTP variable substrate) | Reduction of Km value for GTP in presence of the inhibitor (PEPCK-C 139Leu; GTP variable substrate) | n (stoichiometry, number of binding sites), all experiments (PEPCK-C 139L; [1]) | n (stoichiometry, number of binding sites), all experiments (PEPCK-C 139M; [1]) | Compound | Vmax (GTP) in presence of inhibitor (PEPCK-C 139Met; GTP variable substrate) | Vmax (OAA) in presence of inhibitor (PEPCK-C 139Met) | Vmax (GTP) in presence of inhibitor (PEPCK-C 139Leu; GTP variable substrate) | Vmax (OAA) in presence of inhibitor (PEPCK-C 139Leu) |
| --- | --- | --- | --- | --- | --- | --- | --- | --- | --- | --- | --- | --- | --- | --- | --- | --- |
| 39 | -58.2 | 12 | -32.6 | 19 | -31.8 | 7.2 | -20.4 |  |  |  |  | O=C(O)c1ncccc1S [3-MP, 3-mercaptopicolinic acid] |  |  |  |  |
| 14 | -13.9 | 9.8 | -16.7 | 19 | -26.6 | 4.4 | -20.5 | threefold | about 30% | ~1 | ~1 | Cn1nc(-c2ccc(C=NNC(=O)c3ccc(Cl)cc3Cl)s2)cc1C(F)(F)F [compound 2, N'1-({5-[1-methyl-5-(trifluoromethyl)-1H-pyrazol-3-yl]-2-thienyl}methylidene)-2,4-dichlorobenzene-1-carbohydrazide] | 5.9 ± 2.3 µmol/min/mg | 4.6 µmol/min/mg and 4.6 ± 1.4 µmol/min/mg | 6.1 ± 1.0 ns μmol min^-1 mg^-1 | 12.7 µmol/min/mg and 12.7 ± 1.1 µmol/min/mg |
|  |  |  |  |  |  |  |  |  |  |  |  | CC(=NNC(=S)NC1CCCCC1)c1sc(-c2cccs2)nc1C [compound 1, N1-cyclohexyl-2-{1-[4-methyl-2-(2-thienyl)-1,3-thiazol-5-yl]ethylidene}hydrazine-1-carbothiamide] | 7.8 µmol/min/mg and 7.8 ± 0.5 µmol/min/mg | 6.7 µmol/min/mg and 6.7 ± 1.4 µmol/min/mg | 7.2 μmol min^-1 mg^-1 and 7.2 ± 0.4 ns μmol min^-1 mg^-1 | 9.4 μmol min^-1 mg^-1 and 9.4 ± 1.3 ns μmol min^-1 mg^-1 |

Source: article PMC4938538, “Inhibition of Pig Phosphoenolpyruvate Carboxykinase Isoenzymes by 3-Mercaptopicolinic Acid and Novel Inhibitors” (PLoS ONE, 2016)
